Test results: ChEMBL document CHEMBL1201862, “PubChem BioAssay data set” (2004)
Active and inactive are the calls of the source.

Key:
HEK293 [1] = assay: inhibition of NOD1-driven NF-kB reporter – cell-based, luminescence, uHTS, primary screen (AID 1578); format: functional; settings: Homo sapiens
HEK293 [2] = assay: cells; format: functional, cell-based; settings: Homo sapiens
HEK293 [3] = assay: cells; format: functional, cell-based; settings: Homo sapiens; remark: listed apart in the source
[4] = target: Nucleotide-binding oligomerization domain-containing protein 2 (Homo sapiens, UniProt Q9HC29); assay: inhibition of NOD2-driven NF-kB reporter – cell-based, luminescence, uHTS, HEK293 (AID 1566); format: functional
HEK293 [5] = assay: NOD2 signaling inhibitors in MDP-stimulated cells, cell-based, uHTS, luminescence (AID 2001); format: functional; settings: Homo sapiens
HEK293 [6] = assay: cells; format: functional, cell-based; settings: Homo sapiens; remark: listed apart in the source
Saccharomyces cerevisiae = assay: S. cerevisiae Caspase-1/ASC signal blockers IC50, NALP1 inhibitor project selectivity test (AID 488863); format: functional, organism-based
[7] = target: NACHT, LRR and PYD domains-containing protein 1 (Homo sapiens, UniProt Q9C000); assay: NALP1 inhibitors in yeast, dose response, luminescent (AID 488860); format: functional
Estrogen receptor beta = Estrogen receptor beta (Homo sapiens, UniProt Q92731); assay: blockers of SRC-3 recruitment to ERβ – biochemical, ELISA, streptavidin-HRP readout, orthogonal assay, confirmation (AID 1060)
Ephrin type-A receptor 4 = Ephrin type-A receptor 4 (Mus musculus, UniProt Q03137); assay: EphA4 ligand-binding antagonists – biochemical, colorimetric, mouse EphA4, primary screen (AID 689); format: functional
[8] = target: Induced myeloid leukemia cell differentiation protein Mcl-1 (Homo sapiens, UniProt Q07820); format: functional
[9] = target: T1, Tyrosine-protein phosphatase non-receptor type 7 (Homo sapiens, UniProt P35236); assay: redox-active compounds inhibiting HePTP phosphatase – biochemical, fluorescence, mechanism study (AID 2068); format: functional
T1 sequence (P35236 whole entry): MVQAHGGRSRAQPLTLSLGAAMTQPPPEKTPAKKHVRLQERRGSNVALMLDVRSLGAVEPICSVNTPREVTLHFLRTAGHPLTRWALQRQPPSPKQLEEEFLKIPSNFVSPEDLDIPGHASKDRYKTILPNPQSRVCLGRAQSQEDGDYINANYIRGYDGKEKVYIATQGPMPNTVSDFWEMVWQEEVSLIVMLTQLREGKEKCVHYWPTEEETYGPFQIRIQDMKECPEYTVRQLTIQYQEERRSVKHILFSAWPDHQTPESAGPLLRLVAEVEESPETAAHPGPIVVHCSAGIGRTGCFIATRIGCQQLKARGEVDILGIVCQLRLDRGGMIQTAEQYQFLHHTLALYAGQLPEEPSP

Genome polyprotein = Genome polyprotein (dengue virus type 2, UniProt P29990); assay: flavivirus cap methylation enzyme inhibition – biochemical, confirmation dose response, primary screen (AID 588689); format: functional
[10] = target: Glyceraldehyde-3-phosphate dehydrogenase (Homo sapiens, UniProt P04406)
[11] = target: Alkaline phosphatase, placental type (Homo sapiens, UniProt P05187); assay: human placental alkaline phosphatase inhibition – biochemical, luminescence, confirmation (AID 1512); format: functional
[12] = target: T2, Alkaline phosphatase, tissue-nonspecific isozyme (Homo sapiens, UniProt P05186); assay: potency against alkaline phosphatase TNAP – biochemical, luminescent, dose response, SAR follow-up (AID 1056)
T2 sequence (P05186 whole entry): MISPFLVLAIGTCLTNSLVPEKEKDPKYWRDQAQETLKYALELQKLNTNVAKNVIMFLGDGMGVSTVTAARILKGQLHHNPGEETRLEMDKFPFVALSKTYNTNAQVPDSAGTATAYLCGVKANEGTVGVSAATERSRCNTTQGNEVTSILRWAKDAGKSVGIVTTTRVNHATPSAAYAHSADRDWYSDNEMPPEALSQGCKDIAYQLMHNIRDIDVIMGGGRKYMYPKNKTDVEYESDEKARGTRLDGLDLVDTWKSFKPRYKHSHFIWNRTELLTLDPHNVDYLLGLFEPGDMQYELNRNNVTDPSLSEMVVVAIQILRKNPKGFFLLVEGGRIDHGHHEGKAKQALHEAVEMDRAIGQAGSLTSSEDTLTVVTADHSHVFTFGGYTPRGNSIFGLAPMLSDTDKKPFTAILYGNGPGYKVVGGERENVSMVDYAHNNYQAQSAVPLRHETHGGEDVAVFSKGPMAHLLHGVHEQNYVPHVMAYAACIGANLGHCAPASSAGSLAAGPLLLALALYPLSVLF

[13] = viability of uninfected HEp-2 cells – cell-based, HTS, cytotoxicity control for RSV inhibitor project, dose response (AID 2410); format: functional; settings: human respiratory syncytial virus
[14] = target: Neurotensin receptor type 1 (Homo sapiens, UniProt P30989); format: functional;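 note: Image-based confirmatory dose-response assay measuring agonist activity at NTR1; NTR1-expressing U2OS osteosarcoma cells imaged for beta-arrestin GFP spot formation; agonist potency where compounds increase beta-arrestin recruitment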
Bcl-2-related protein A1 = Bcl-2-related protein A1 (Mus musculus, UniProt Q07440); format: functional;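 note: confirmatory dose–response counterscreen on Bfl-1, used to check hits from a UBC13 polyubiquitin inhibitor campaign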
[15] = target: T3, Ubiquitin-conjugating enzyme E2 N (Homo sapiens, UniProt P61088); format: functional
T3 sequence (P61088 whole entry): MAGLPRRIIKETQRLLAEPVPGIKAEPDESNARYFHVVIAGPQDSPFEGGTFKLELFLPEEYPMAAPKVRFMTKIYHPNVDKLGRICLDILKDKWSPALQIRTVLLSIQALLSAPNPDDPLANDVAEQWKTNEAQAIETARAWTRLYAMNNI

[16] = target: T3, Ubiquitin-conjugating enzyme E2 N; format: functional; remark: listed apart in the source
[17] = HGIII-sPLA2 enzyme inhibition potency – biochemical, QFRET, IC50, dose response (AID 743457);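 note: green fluorescence rise as the enzyme cleaves BODIPY PC-A2 in liposomes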
[18] = target: T4, Heat shock factor protein 1 (Mus musculus, UniProt P38532); assay: enhancement of HSF1-driven luciferase signal – cell-based, NIH3T3, luminescence, dose retest, confirmation (AID 435004); format: functional;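 note: stress induced by proteasome inhibitor MG132 added 30 min after compound; luciferase reporter driven by HSF1 response element in NIH3T3 cells; actives raise luminescence as potentiators of the MG132 stress response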
T4 sequence (P38532 whole entry): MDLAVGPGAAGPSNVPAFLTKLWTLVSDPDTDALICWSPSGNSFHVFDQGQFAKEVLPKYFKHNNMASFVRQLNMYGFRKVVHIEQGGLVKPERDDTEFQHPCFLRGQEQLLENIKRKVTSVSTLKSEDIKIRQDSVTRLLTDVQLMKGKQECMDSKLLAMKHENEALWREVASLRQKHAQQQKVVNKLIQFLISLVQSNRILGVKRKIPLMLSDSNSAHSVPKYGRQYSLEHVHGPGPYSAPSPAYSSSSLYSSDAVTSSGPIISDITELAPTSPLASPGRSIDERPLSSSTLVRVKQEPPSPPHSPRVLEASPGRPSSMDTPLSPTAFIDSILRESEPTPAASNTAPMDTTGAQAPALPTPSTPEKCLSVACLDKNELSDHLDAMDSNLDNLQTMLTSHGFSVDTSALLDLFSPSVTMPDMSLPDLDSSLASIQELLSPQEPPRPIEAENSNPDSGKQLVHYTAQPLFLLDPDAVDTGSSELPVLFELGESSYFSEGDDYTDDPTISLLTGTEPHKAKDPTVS

Cytochrome P450 3A4 = Cytochrome P450 3A4 (Homo sapiens, UniProt P08684);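 note: CYP3A4 tested as one member of a cytochrome P450 panel screen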
[19] = tested on: Streptococcus sp. 'group A'; assay: Streptococcus pyogenes SK(-)GAS viability under kanamycin – luminescence, BacTiterGlo, confirmation, counter-screen for streptokinase expression inhibitor project, dose response (AID 1900); format: functional, organism-based; settings: Streptococcus sp. 'group A'
Streptococcus = assay: GAS UMAA2166 growth inhibition – luminescence, BacTiterGlo, counter-screen for streptokinase expression inhibitor project, dose response (AID 1915); format: functional, organism-based; settings: Streptococcus;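 note: potency for reduction of bacterial viability or growth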
[20] = target: T5, Apoptotic protease-activating factor 1 (Homo sapiens, UniProt O14727); format: functional
T5 sequence (O14727 whole entry): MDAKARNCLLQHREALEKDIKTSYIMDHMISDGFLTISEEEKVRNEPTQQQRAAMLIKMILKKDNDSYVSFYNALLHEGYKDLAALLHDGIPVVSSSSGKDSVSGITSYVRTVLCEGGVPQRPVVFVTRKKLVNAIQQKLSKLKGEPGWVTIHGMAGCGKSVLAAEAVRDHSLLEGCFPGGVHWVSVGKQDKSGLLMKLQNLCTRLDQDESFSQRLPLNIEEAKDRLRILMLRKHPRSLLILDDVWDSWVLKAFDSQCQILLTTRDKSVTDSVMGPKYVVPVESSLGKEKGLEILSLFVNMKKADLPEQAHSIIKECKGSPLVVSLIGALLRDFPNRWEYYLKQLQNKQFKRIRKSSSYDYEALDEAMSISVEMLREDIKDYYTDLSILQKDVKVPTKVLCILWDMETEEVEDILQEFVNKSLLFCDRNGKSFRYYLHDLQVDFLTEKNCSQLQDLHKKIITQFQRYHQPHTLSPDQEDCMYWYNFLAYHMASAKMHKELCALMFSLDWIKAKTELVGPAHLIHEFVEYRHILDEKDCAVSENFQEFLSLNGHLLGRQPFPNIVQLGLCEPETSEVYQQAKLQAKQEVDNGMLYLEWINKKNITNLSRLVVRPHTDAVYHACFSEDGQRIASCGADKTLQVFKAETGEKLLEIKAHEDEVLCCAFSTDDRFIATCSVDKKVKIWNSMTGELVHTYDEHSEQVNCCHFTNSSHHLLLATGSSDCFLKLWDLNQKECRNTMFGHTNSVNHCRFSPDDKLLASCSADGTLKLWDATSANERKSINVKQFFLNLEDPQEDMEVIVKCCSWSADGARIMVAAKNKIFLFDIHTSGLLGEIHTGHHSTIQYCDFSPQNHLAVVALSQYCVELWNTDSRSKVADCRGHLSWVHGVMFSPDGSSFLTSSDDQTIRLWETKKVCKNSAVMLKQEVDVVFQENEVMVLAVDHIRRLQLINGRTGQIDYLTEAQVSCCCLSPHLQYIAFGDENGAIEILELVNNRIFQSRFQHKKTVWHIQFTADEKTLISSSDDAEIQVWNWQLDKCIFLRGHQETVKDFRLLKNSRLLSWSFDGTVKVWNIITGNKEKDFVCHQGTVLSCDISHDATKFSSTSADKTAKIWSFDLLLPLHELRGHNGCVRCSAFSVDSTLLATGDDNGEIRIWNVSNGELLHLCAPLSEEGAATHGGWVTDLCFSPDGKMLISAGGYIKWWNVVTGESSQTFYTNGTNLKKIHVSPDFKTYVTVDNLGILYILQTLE

INS1 = assay: INS-1E survival protection against cytokine death – cell-based, luminescence, retest, dose response (AID 449756); format: functional; settings: Rattus norvegicus;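 note: cell death triggered by IL-1 beta plus TNF-alpha plus IFN-gamma mixture; protective hits raise ATP signal compared with cytokine alone wells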
[21] = target: T6, DNA repair protein RAD52 homolog (Homo sapiens, UniProt P43351); format: functional, biochemical
T6 sequence (P43351 whole entry): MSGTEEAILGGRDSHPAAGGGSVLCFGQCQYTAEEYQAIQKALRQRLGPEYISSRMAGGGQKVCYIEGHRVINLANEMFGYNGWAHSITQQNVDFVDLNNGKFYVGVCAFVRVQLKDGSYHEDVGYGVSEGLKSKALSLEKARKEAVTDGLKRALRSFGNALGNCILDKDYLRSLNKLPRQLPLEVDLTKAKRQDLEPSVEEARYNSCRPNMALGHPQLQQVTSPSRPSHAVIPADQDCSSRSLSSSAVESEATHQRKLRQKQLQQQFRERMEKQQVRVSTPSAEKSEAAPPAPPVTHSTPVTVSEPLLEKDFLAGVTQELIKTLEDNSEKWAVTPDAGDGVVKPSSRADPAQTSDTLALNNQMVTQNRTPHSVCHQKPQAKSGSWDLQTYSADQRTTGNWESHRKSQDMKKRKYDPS

Chain of Neurotensin receptor type 1 (P30989 whole entry): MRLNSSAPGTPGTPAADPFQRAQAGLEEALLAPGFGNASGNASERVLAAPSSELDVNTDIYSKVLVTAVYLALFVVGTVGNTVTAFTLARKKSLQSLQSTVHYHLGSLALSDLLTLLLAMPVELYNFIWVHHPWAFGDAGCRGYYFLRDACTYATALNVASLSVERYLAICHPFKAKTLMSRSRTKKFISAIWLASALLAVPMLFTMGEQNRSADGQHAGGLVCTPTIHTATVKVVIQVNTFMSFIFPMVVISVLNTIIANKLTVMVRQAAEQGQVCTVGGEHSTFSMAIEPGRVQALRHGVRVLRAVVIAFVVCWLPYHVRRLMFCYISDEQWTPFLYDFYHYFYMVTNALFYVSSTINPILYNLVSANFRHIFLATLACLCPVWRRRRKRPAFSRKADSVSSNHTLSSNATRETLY
Chain of Glyceraldehyde-3-phosphate dehydrogenase (P04406 whole entry): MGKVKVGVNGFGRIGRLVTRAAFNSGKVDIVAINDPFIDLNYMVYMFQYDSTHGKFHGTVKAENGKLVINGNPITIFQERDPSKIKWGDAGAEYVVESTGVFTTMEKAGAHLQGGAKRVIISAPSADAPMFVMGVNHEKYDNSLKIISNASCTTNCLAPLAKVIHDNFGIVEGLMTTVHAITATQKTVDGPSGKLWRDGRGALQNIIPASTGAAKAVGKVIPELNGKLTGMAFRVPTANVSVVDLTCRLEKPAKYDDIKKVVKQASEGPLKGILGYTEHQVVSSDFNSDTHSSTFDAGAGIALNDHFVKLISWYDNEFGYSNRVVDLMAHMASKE
Chain of Alkaline phosphatase, placental type (P05187 whole entry): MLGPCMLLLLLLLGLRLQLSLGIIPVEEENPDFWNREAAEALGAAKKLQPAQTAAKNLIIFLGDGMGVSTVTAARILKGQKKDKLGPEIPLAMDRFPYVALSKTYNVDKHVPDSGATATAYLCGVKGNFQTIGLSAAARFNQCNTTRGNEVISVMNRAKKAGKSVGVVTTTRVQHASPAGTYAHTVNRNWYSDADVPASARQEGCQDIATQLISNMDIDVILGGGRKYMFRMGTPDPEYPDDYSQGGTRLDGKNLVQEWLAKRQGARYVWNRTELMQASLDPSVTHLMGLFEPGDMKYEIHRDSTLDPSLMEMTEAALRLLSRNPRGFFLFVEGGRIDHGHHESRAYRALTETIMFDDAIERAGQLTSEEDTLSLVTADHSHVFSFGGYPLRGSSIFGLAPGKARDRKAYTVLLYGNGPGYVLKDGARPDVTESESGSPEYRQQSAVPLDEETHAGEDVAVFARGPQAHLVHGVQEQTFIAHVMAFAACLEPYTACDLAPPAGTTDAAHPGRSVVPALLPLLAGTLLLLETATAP
Chain of Bcl-2-related protein A1 (Q07440 whole entry): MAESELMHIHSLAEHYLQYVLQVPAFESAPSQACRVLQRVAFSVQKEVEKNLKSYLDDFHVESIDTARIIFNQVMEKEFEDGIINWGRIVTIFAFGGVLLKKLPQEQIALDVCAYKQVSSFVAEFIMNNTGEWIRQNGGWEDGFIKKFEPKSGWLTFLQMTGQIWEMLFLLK
Chain of Nucleotide-binding oligomerization domain-containing protein 2 (Q9HC29 whole entry, the tested form may be a part): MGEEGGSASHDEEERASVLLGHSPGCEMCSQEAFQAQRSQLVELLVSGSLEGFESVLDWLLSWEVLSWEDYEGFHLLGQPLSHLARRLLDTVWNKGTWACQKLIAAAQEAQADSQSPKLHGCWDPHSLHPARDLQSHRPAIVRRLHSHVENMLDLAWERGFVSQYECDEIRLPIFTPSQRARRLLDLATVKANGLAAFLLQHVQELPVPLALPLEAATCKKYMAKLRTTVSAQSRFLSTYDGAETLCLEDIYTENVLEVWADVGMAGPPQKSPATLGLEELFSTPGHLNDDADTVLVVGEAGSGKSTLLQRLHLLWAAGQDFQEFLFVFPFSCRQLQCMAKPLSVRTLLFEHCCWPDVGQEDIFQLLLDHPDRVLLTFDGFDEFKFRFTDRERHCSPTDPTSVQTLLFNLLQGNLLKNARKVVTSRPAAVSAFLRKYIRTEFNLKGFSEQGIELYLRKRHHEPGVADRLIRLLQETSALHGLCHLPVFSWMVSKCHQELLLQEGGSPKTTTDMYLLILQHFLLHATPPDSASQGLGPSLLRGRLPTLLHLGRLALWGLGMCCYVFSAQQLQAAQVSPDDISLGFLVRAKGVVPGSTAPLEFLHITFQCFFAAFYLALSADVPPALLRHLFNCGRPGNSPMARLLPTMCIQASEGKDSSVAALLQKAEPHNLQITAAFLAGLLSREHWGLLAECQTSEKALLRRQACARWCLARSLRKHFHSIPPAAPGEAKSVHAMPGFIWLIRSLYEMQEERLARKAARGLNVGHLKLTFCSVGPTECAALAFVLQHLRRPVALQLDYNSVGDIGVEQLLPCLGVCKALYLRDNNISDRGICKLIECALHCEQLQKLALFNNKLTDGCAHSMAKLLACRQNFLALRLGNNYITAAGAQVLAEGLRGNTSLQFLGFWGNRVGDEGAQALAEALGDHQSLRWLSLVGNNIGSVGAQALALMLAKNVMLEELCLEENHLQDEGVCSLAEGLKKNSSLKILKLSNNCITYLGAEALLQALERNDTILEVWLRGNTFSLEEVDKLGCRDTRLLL
Chain of NACHT, LRR and PYD domains-containing protein 1 (Q9C000 1-1212 limits assumed): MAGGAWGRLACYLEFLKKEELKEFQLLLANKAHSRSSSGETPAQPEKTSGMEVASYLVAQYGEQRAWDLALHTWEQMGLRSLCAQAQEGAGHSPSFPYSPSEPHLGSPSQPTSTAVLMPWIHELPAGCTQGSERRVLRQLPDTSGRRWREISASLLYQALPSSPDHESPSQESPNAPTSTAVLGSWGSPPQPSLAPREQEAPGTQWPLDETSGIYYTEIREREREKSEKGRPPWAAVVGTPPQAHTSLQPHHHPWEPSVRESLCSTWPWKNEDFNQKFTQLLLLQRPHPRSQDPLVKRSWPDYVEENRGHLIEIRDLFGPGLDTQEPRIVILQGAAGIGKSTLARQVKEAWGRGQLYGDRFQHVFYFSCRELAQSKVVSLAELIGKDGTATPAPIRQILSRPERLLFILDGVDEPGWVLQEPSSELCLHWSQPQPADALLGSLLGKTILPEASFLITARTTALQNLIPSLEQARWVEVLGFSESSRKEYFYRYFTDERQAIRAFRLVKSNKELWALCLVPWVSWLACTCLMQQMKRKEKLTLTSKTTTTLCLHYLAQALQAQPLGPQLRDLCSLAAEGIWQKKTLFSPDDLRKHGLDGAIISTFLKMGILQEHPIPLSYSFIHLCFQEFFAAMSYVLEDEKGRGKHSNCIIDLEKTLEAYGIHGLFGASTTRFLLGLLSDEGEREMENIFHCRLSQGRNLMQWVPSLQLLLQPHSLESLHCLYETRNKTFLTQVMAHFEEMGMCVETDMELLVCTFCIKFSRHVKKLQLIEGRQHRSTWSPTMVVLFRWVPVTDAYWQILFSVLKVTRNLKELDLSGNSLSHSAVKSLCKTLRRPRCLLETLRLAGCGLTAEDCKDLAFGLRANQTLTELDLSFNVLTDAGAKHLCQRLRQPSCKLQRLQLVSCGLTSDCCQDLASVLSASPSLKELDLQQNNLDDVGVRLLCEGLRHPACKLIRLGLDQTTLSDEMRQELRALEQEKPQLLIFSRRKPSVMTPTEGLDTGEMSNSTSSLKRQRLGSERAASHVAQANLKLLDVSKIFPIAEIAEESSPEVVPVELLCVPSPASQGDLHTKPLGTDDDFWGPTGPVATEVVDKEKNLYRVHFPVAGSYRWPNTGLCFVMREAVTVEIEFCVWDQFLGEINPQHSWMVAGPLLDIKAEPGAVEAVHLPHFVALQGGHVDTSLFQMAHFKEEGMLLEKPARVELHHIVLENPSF
Chain of NACHT, LRR and PYD domains-containing protein 1 (Q9C000 1213-1473 limits assumed): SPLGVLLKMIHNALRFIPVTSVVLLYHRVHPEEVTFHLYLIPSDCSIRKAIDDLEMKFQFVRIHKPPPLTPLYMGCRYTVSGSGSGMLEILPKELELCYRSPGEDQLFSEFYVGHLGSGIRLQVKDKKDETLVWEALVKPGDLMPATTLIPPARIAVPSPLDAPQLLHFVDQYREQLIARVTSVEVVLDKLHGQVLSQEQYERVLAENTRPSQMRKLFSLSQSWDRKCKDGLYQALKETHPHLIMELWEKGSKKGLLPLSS
Chain of Ephrin type-A receptor 4 (Q03137 whole entry): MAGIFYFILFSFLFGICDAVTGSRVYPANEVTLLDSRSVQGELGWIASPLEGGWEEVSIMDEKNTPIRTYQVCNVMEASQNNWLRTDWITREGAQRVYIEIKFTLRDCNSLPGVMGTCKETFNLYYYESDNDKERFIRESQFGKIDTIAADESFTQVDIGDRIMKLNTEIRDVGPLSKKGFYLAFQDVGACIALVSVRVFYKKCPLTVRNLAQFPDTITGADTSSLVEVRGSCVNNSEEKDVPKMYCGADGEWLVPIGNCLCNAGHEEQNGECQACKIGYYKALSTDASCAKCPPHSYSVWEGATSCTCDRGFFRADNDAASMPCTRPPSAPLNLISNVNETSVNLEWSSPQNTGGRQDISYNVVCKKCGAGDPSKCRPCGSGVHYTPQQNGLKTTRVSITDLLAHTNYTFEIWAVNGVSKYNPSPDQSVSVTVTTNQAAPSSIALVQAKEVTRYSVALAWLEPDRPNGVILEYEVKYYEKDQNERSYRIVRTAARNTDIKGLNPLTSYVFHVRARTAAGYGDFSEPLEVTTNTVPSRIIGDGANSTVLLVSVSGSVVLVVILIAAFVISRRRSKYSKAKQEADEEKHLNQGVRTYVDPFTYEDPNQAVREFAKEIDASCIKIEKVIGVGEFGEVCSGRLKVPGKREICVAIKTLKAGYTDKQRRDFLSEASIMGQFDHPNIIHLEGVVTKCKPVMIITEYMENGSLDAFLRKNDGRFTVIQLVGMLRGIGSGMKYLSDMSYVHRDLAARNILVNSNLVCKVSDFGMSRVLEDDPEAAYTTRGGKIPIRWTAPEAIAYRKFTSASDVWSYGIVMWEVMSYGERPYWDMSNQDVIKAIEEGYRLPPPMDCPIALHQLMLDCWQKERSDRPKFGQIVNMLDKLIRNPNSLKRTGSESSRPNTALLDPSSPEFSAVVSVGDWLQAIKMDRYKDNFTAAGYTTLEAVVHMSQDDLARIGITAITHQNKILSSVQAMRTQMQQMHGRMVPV

## Nc1ncnc(Nc2ccccn2)c1[N+](=O)[O-]
HEK293 [1]
  EC50: 17.8 µM (active)
HEK293 [2]
  IC50: 7.86 µM (active)
HEK293 [3]
  IC50: > 20 µM (inactive)
[4]
  EC50: 18.8 µM (active)
HEK293 [5]
  IC50: 17.6 µM (inactive)
HEK293 [6]
  IC50: > 20 µM (inactive)

## COc1ccccc1N1C(=O)C2CCC(c3ccccc3)CC2C1=O (stereo not given)
Saccharomyces cerevisiae
  IC50: > 100 µM (inactive)
[7]
  IC50: > 100 µM (inactive)

## O=C(NCCc1ccccc1)c1ccc2nc(-c3ccco3)c(-c3ccco3)nc2c1
Estrogen receptor beta
  IC50: 2.59 µM (not active)
Ephrin type-A receptor 4
  IC50: 21.3 µM (active)
[8]
  IC50: 3.16 µM (active)
[9]
  IC50: 1.05 µM (active)
Genome polyprotein
  IC50: 59.1 µM (active)

## COc1ccccc1-c1nc(SCc2cccc(Br)c2)n[nH]1
[10]
  IC50: > 100 µM (not active)
[11]
  IC50: > 100 µM (inactive)
[12]
  IC50: > 100 µM (inactive)

## O=C1C2CC=CCC2C(=O)N1c1n[nH]c(-c2ccccc2)n1 (stereo not given)
[10]
  IC50: > 100 µM (not active)
[11]
  IC50: 4 µM (active)
[12]
  IC50: 0.308 µM (active)

## COC(=O)C(=Cc1ccc(OCc2ccc([N+](=O)[O-])cc2)c(OC)c1)C(=O)OC
[13]
  CC50: 6.91 µM (active)
HEK293 [1]
  EC50: > 20 µM (inactive)
HEK293 [2]
  IC50: 4.31 µM (active)
HEK293 [3]
  IC50: > 20 µM (inactive)
HEK293 [5]
  IC50: 8.46 µM (active)
[14]
  EC50: 5.98 µM (active)

## Cc1cc(C(=O)NNC(=S)NC(=O)/C=C/c2ccccc2Cl)[nH]n1
Bcl-2-related protein A1
  IC50: > 20 µM (inactive)
[15]
  IC50: 6.96 µM (active)
[16]
  IC50: 5.24 µM (active)
[17]
  IC50: > 122 µM (inactive)

## CCOC(=O)COc1ccc(/C=C/[N+](=O)[O-])c(OCC(=O)OCC)c1
[14]
  EC50: 3.89 µM (active)
[18]
  EC50: 6.52 µM (inconclusive)
Cytochrome P450 3A4
  AC50: 11.2 µM (inconclusive)

## Cc1[nH]n(-c2ccccc2)c(=O)c1/C=N/NC(=O)c1cccc(F)c1
HEK293 [1]
  EC50: 8.44 µM (active)
[19]
  EC50: 4.31 µM (active)
HEK293 [2]
  IC50: > 20 µM (inactive)
HEK293 [3]
  IC50: > 20 µM (inactive)
[4]
  EC50: > 20 µM (inactive)
HEK293 [5]
  IC50: > 20 µM (inactive)
HEK293 [6]
  IC50: > 20 µM (inactive)
Streptococcus
  EC50: 7.25 µM (active)
[20]
  IC50: 7.78 µM (active)
INS1
  AC50: 2.03 µM (active)

## C[C@]12CC[C@H](O)C[C@@H]1CC[C@@H]1[C@@H]2CC[C@]2(C)[C@@H](OC(=O)[C@H](N)CCCCN)CC[C@@H]12
Bcl-2-related protein A1
  IC50: > 20 µM (inactive)
[16]
  IC50: 11.8 µM (active)
[21]
  AC50: 1.27 µM (active)
